Source: patent US5064953A, “Intermediates cephalosporin derivatives” (Mochida Pharmaceutical Co., Ltd., priority 1983, dated 1991)
Converted amounts (≈) assume the structure as drawn.

Columns and labels:
Test in all cases: Antibacterial activity in vitro, agar plate dilution method (MIC)
Type in all cases: cell-based
[1] = test system: Proteus morganii IF03848; details: Morganella morganii, 10^6 cells/ml, Mueller Hinton agar, 37° C., 20 hours
Description: (§1) Antibacterial activity in vitro was determined in accordance with the agar plate dilution method. A platinum loop each of test bacteria (10^6 cells/ml), cultured in Mueller Hinton broth, was inoculated on Mueller Hinton agar plates which contained test compounds at various concentrations. After cultivating at 37° C. for 20 hours, the minimum inhibitory concentration (MIC μg/ml) was determined.

[2] = test system: Staphylococcus aureus Smith; details: 10^6 cells/ml, Mueller Hinton agar, 37° C., 20 hours
Description: as §1

[3] = test system: Klebsiella pneumoniae IF03317; details: 10^6 cells/ml, Mueller Hinton agar, 37° C., 20 hours
Description: as §1

[4] = test system: Escherichia coli 67; details: 10^6 cells/ml, Mueller Hinton agar, 37° C., 20 hours
Description: as §1

[5] = test system: Pseudomonas aeruginosa IF03445; details: 10^6 cells/ml, Mueller Hinton agar, 37° C., 20 hours
Description: as §1

[6] = test system: Serratia marcescens IF03759; details: 10^6 cells/ml, Mueller Hinton agar, 37° C., 20 hours
Description: as §1

Row | MIC [1] | MIC [2] | MIC [3] | MIC [4] | MIC [5] | MIC [6] | Structure (SMILES)
1 | 1.57 µg/mL (≈ 2.65 µM) | 12.5 µg/mL (≈ 21.1 µM) | < 0.05 µg/mL | 0.39 µg/mL (≈ 0.659 µM) | > 100 µg/mL | 0.78 µg/mL (≈ 1.32 µM) | CO/N=C(\C(=O)N[C@@H]1C(=O)N2C(C(=O)O)=C(CSc3c(C(=O)O)cnc4ncnn34)CS[C@H]12)c1csc(N)n1 [Compound 3, (6R,7R)-7-[2-(2-amino-4-thiazolyl)-2-(Z-methoxyimino)acetamido]-3-[(6-carboxy-s-triazolo[1,5-a]pyrimidin-7-yl)-thiomethyl]-8-oxo-5-thia-1-azabicyclo [4.2.0]oct-2-ene-2-carboxylic acid]
2 | 0.78 µg/mL (≈ 1.26 µM) | 3.13 µg/mL (≈ 5.05 µM) | < 0.05 µg/mL | 0.2 µg/mL (≈ 0.323 µM) | 25 µg/mL (≈ 40.3 µM) | 0.1 µg/mL (≈ 0.161 µM) | CO/N=C(\C(=O)N[C@@H]1C(=O)N2C(C(=O)O)=C(CSc3cc(C)nc4nc(CC(=O)O)nn34)CS[C@H]12)c1csc(N)n1 [Compound 4, (6R,7R)-7-[2-(2-amino-4-thiazolyl)-2-(Z-methoxyimino)acetamido]-3-[(2-carboxymethyl-5-methyl-s-triazolo[1,5-a]pyrimidin-7-yl)thiomethyl]-8-oxo-5-thia-1-azabicyclo[4.2.0]oct-2-ene-2-carboxylic acid]
3 | 0.78 µg/mL (≈ 1.29 µM) | 3.13 µg/mL (≈ 5.17 µM) | < 0.05 µg/mL | 0.1 µg/mL (≈ 0.165 µM) | > 100 µg/mL | 0.2 µg/mL (≈ 0.33 µM) | CO/N=C(\C(=O)N[C@@H]1C(=O)N2C(C(=O)O)=C(CSc3cc(CC(=O)O)nc4ncnn34)CS[C@H]12)c1csc(N)n1 [Compound 5, (6R,7R)-7-[2-(2-amino-4-thiazolyl)-2-(Z-methoxyimino)acetamido]-3-[(5-carboxymethyl-s-triazolo[1,5-a]pyrimidin-7-yl)thiomethyl]-8-oxo-5-thia-1-azabicyclo[4.2.0]oct-2-ene-2-carboxylic acid]
4 | 0.39 µg/mL (≈ 0.614 µM) | 12.5 µg/mL (≈ 19.7 µM) | < 0.05 µg/mL | < 0.05 µg/mL | > 100 µg/mL | 0.39 µg/mL (≈ 0.614 µM) | CO/N=C(\C(=O)N[C@@H]1C(=O)N2C(C(=O)O)=C(CSc3c(C(=O)O)cnc4nc(C(=O)O)nn34)CS[C@H]12)c1csc(N)n1 [Compound 7, (6R,7R)-7-[2-(2-amino-4-thiazolyl)-2-(Z-methoxyimino)acetamido]-3-[(2,6-dicarboxy-s-triazolo[1,5-a]pyrimidin-7-yl)thiomethyl]-8-oxo-5-thia-1-azabicyclo[4.2.0]oct-2-ene-2-carboxylic acid]
5 | 0.1 µg/mL (≈ 0.144 µM) | 0.39 µg/mL (≈ 0.56 µM) | < 0.05 µg/mL | < 0.05 µg/mL | > 100 µg/mL | < 0.05 µg/mL | Cc1cc(SCC2=C(C(=O)O)N3C(=O)[C@@H](NC(=O)/C(=N\OC(=O)c4cccnc4)c4csc(N)n4)[C@H]3SC2)n2nc(C(=O)O)nc2n1 [Compound 11, (6R,7R)-7-[2-(2-amino-4-thiazolyl)-2-[Z-(3-pyridinecarbonyl)oxyimino]acetamido]-3-[(2-carboxy-5-methyl-s-trizolo[1,5-a]pyrimidin-7-yl)thiomethyl]-8-oxo-5-thia-1-azabicyclo[4.2.0]oct-2-ene-2-carboxylic acid]
6 | 0.78 µg/mL (≈ 1.05 µM) | 0.78 µg/mL (≈ 1.05 µM) | 0.39 µg/mL (≈ 0.527 µM) | 0.39 µg/mL (≈ 0.527 µM) | 25 µg/mL (≈ 33.8 µM) | 0.39 µg/mL (≈ 0.527 µM) | Cc1cc(SCC2=C(C(=O)O)N3C(=O)[C@@H](NC(=O)/C(=N\OC(=O)c4ccc5c(c4)OCO5)c4csc(N)n4)[C@H]3SC2)n2nc(C(=O)O)nc2n1 [Compound 12]
7 | 0.2 µg/mL (≈ 0.23 µM) | 0.78 µg/mL (≈ 0.897 µM) | < 0.05 µg/mL | 0.05 µg/mL (≈ 0.0575 µM) | 1.57 µg/mL (≈ 1.8 µM) | < 0.05 µg/mL | CC(=O)Oc1cc(C(=O)O/N=C(\C(=O)N[C@@H]2C(=O)N3C(C(=O)O)=C(CSc4cc(C)nc5nc(C(=O)O)nn45)CS[C@H]23)c2csc(N)n2)cc(OC(C)=O)c1OC(C)=O [Compound 13]
8 | 0.2 µg/mL (≈ 0.338 µM) | 3.13 µg/mL (≈ 5.29 µM) | < 0.05 µg/mL | 0.1 µg/mL (≈ 0.169 µM) | 50 µg/mL (≈ 84.5 µM) | < 0.05 µg/mL | CO/N=C(\C(=O)N[C@@H]1C(=O)N2C(C(=O)O)=C(CSc3ccnc4nc(C(=O)O)nn34)CS[C@H]12)c1csc(N)n1 [Compound 14, (6R,7R)-7-[2-(2-amino-4-thiazolyl)-2-(Z-methoxyimino)acetamido]-3-[(2-carboxy-s-triazolo[1,5-a]pyrimidin-7-yl)thiomethyl]-8-oxo-5-thia-1-azabicyclo[4.2.0]oct-2-ene-2-carboxylic acid]
9 | 0.78 µg/mL (≈ 1.28 µM) | 12.5 µg/mL (≈ 20.6 µM) | < 0.05 µg/mL | 0.39 µg/mL (≈ 0.642 µM) | 12.5 µg/mL (≈ 20.6 µM) | 0.1 µg/mL (≈ 0.165 µM) | CO/N=C(\C(=O)N[C@@H]1C(=O)N2C(C(=O)O)=C(CSc3cc(O)nc4nc(C(=O)O)nn34)CS[C@H]12)c1csc(N)n1 [Compound 15]
10 | 3.13 µg/mL (≈ 5.42 µM) | 1.57 µg/mL (≈ 2.72 µM) | < 0.05 µg/mL | 0.1 µg/mL (≈ 0.173 µM) | 100 µg/mL (≈ 173 µM) | 0.39 µg/mL (≈ 0.675 µM) | CO/N=C(\C(=O)N[C@@H]1C(=O)N2C(C(=O)O)=C(CSc3cc(OC)nc4ncnn34)CS[C@H]12)c1csc(N)n1 [Compound 16, (6R,7R)-7-[2-(2-amino-4-thiazolyl)-2-(Z-methoxyimino)acetamido]-3-[(5-methoxy-s-triazolo[1,5-a]pyrimidin-7-yl)thiomethyl]-8-oxo-5-thia-1-azabicyclo[4.2.0]oct-2-ene-2-carboxylic acid]
11 | 0.39 µg/mL (≈ 0.676 µM) | 1.57 µg/mL (≈ 2.72 µM) | < 0.05 µg/mL | 0.1 µg/mL (≈ 0.173 µM) | 50 µg/mL (≈ 86.7 µM) | 0.2 µg/mL (≈ 0.347 µM) | CO/N=C(\C(=O)N[C@@H]1C(=O)N2C(C(=O)O)=C(CSc3cc(C)nc4nc(N)nn34)CS[C@H]12)c1csc(N)n1 [Compound 17, (6R,7R)-7-[2-(2-amino-4-thiazolyl)-2-(Z-methoxyimino)acetamido]-3-[(2-amino-5-methyl-s-triazolo[1,5-a]pyrimidin-7-yl)thiomethyl]-8-oxo-5-thia-1-azabicyclo[4.2.0]oct-2-ene-2-carboxylic acid]
12 | 0.78 µg/mL (≈ 1.22 µM) | 0.39 µg/mL (≈ 0.608 µM) | < 0.05 µg/mL | < 0.05 µg/mL | 100 µg/mL (≈ 156 µM) | 0.2 µg/mL (≈ 0.312 µM) | CO/N=C(\C(=O)N[C@@H]1C(=O)N2C(C(=O)O)=C(CSc3cc(C)nc4nc(S(=O)(=O)O)nn34)CS[C@H]12)c1csc(N)n1 [Compound 18, (6R,7R)-7-[2-(2-amino-4-thiazolyl)-2-(Z-methoxyimino)acetamido]-3-[(2 hydroxysulfonyl-5-methyl-s-triazolo[1,5-a]pyrimidin-7-yl)thiomethyl]-8-oxo-5-thia-1-azabicyclo[4.2.0]oct 2-ene-2-carboxylic acid]
13 | 0.2 µg/mL (≈ 0.329 µM) | 6.25 µg/mL (≈ 10.3 µM) | < 0.05 µg/mL | < 0.05 µg/mL | 6.25 µg/mL (≈ 10.3 µM) | < 0.05 µg/mL | CO/N=C(\C(=O)N[C@@H]1C(=O)N2C(C(=O)O)=C(CSc3nc4ncc(C(=O)O)c(O)n4n3)CS[C@H]12)c1csc(N)n1 [Compound 19, (6R,7R)-7-[2-(2-amino-4-thiazolyl)-2-(Z-methoxyimino)acetamido]-3-[(6-carboxy-7-hydroxy-s-triazolo[1,5-a]pyrimidin-2-yl)thiomethyl]-8-oxo-5-thia-1-azabicyclo[4.2.0]oct-2-ene-2-carboxylic acid]
14 | 0.78 µg/mL (≈ 1.29 µM) | 3.13 µg/mL (≈ 5.17 µM) | < 0.05 µg/mL | 0.2 µg/mL (≈ 0.33 µM) | 12.5 µg/mL (≈ 20.6 µM) | 0.2 µg/mL (≈ 0.33 µM) | CO/N=C(\C(=O)N[C@@H]1C(=O)N2C(C(=O)O)=C(CSc3cc(C(=O)O)nc4nnc(C)n34)CS[C@H]12)c1csc(N)n1 [Compound 20, (6R,7R)-7-[2-(2-amino-4-thiazolyl)-2-(Z-methoxyimino)acetamido]-3-[(7-carboxy-3-methyl-s-triazolo[4,3-a]pyrimidin-5-yl)thiomethyl]-8-oxo-5-thia-1-azabicyclo[4.2.0]oct-2-ene-2-carboxylic acid]
15 | 3.13 µg/mL (≈ 5.15 µM) | 25 µg/mL (≈ 41.1 µM) | 0.1 µg/mL (≈ 0.165 µM) | 0.78 µg/mL (≈ 1.28 µM) | > 100 µg/mL | 1.57 µg/mL (≈ 2.58 µM) | CO/N=C(\C(=O)N[C@@H]1C(=O)N2C(C(=O)O)=C(CSc3nnc4nc(C(=O)O)cc(O)n34)CS[C@H]12)c1csc(N)n1 [Compound 21, (6R,7R)-7-[2-(2-amino-4-thiazolyl)-2-(Z-methoxyimino)acetamido]-3-[(7-carboxy-5-hydroxy-s-triazolo[4,3-a]pyrimidin-3-yl)thiomethyl]-8-oxo-5-thia-1-azabicyclo[4.2.0]oct-2-ene-2-carboxylic acid]
16 | 0.78 µg/mL (≈ 1.39 µM) | 1.57 µg/mL (≈ 2.79 µM) | < 0.05 µg/mL | 0.1 µg/mL (≈ 0.178 µM) | 50 µg/mL (≈ 88.9 µM) | 0.39 µg/mL (≈ 0.693 µM) | CO/N=C(\C(=O)N[C@@H]1C(=O)N2C(C(=O)O)=C(CSc3nc(N)cc4ncnn34)CS[C@H]12)c1csc(N)n1 [Compound 22, (6R,7R)-7-[2-(2-amino-4-thiazolyl)-2-(Z-methoxyimino)acetamido]-3-[(7-amino-s-triazolo[1,5-c]pyrimidin-5-yl)thiomethyl]-8 oxo-5-thia-1-azabicyclo[4.2.0]oct-2-ene-2-carboxylic acid]
17 | 0.78 µg/mL (≈ 1.35 µM) | 3.13 µg/mL (≈ 5.42 µM) | < 0.05 µg/mL | 0.1 µg/mL (≈ 0.173 µM) | 50 µg/mL (≈ 86.6 µM) | 0.39 µg/mL (≈ 0.675 µM) | CO/N=C(\C(=O)N[C@@H]1C(=O)N2C(C(=O)O)=C(CSc3nnc4cc(C)nc(O)n34)CS[C@H]12)c1csc(N)n1 [Compound 23, (6R,7R)-7-[2-(2-amino-4-thiazolyl)-2-(Z-methoxyimino)acetamido]-3 [(5-hydroxy-7-methyl-s-triazolo[4,3-c]pyrimidin-3-yl)thiomethyl]-8-oxo-5-thia-1-azabicyclo[4.2.0]oct-2-ene-2-carboxylic acid]
